The results in this text go back to US20060111368A1, “Phosphodiesterase inhibitor” (Kyowa Hakko Kogyo Co., Ltd., priority 2002, published 2006).

Where a name gives a salt, the structure may show the parent alone.

For test [1], the system named is MDA-MB-231 (human breast cancer cell). Kind of test: Cell growth inhibitory activity (MTT-type colorimetric assay). The test is classed as cell-based. The conditions noted are these: MDA-MB-231, 72 h, 10 μmol/L, 3 days of culture. The method, then:
Cell Growth Inhibitory Activity
Cell growth inhibitory activity of compound 12 was examined on MDA-MB-231 (human breast cancer cell: American Type Culture Collection) using an in-vitro cell growth assay [3-(4,5-dimethylthiazol-2-yl)-2,5-diphenyl tetrazolium bromide (MTT)]-type calorimetric assay [Leukemia, vol. 7, p. 1637, (1993)].
MDA-MB-231 (2.5×10^4 cells/mL, 270 μL) was inoculated on a 48-well plate, and cultured overnight. In the culture, Leibovitz's L-15 (Gibco) containing. 10% fetal calf serum (Hi-Clone), 0.05 units/mL of penicillin (Gibco) and 0.05 μg/mL of streptomycin (Gibco) was used as a culture medium. 30 μL of compound 12 dissolved in the same medium containing 0.1% dimethyl sulfoxide (DMSO; Wako Pure Chemical Industries) was added to each well. After 3 days of culture, 30 μL of MTT (Dojin Kagaku Kenkyusho, adjusted to a concentration of 5 mg/mL with PBS) was added to each well. After 4 hours of culture, 900 μL of DMSO was added to dissolve the cells. The cell solution was moved to a 96-well plate in amounts of 200 μL each, and fluorescence intensity OD590-630was measured with an automated microplate reader EL340 (Biotech Instruments). […] (medium containing 0.1% DMSO alone was added) and OD (blank) is fluorescence intensity (OD590-630) of the same medium containing 0.1% DMSO. […]
Background: Formazan colour is commonly taken as a measure of viable cells.

The next test deals with T1, PDE10A (Homo sapiens, UniProt Q9Y233).
T1 construct: made in house; host or cells: Sf9 insect cells (baculovirus, pVL1393)
Nature of the test: Activity of inhibiting PDE10A activity ([3H]cAMP decomposition inhibiting test). In kind it is biochemical. The settings on record: substrate [3H]cAMP 0.2 μmol/L. The procedure:
Activity of Inhibiting PDE10A Activity (^3H]cAMP Decomposition Inhibiting Test)
PCR was performed using DNAs having base sequences described in SEQ ID NO. 1 and SEQ ID NO. 2 as primers and human kidney cDNA as a template to prepare a plasmid containing amplified fragments. The plasmid was cleaved with restriction endonucleases Pst I and Xba I to obtain a Pst I-Xba I fragment of 0.7 kb.
Meanwhile, Est clone (Cosmo Bio, Tokyo) of GenBank, ACCESSION WO 4835 was cleaved with restriction endonucleases Kpn I and Pst I to obtain a Kpn I-Pst I fragment of 1.5 kb.
The resulting Pst I-Xba I fragment of 0.7 kb and Kpn I-Pst I fragment of 1.5 kb were subcloned in a Kpn I-Xba I site of pBluescript II KS(−) (STRATAGENE, La Jolla, Calif., USA),to construct a plasmid having a cDNA fragment completely including a catalyst region of PDE10A. Subsequently, the plasmid was cleaved with restriction endonucleases Kpn I and Not I to obtain a Kpn I-Not I fragment of 2.2 kb.
The resulting Kpn I-Not I fragment of 2.2 kb and a linker having a BamH I-Kpn I cleavage surface prepared by synthetic DNA having base sequences described in SEQ ID NOS. 3 and 4 were subcloned in a BamH I-Not I site of pVL1393 (PharMingen, San Diego, Calif., USA) to obtain a plasmid for preparation of Baculovirus. The plasmid contains a DNA encoding a peptide in which methionine, FLAG tag and a peptide having a 64th to 779th amino acid sequence of PDE10A [GenBank, ACCESSION NP 006652: Gene, vol. 234, p. 109 (1999), J. Biol. Chem., vol. 274, p. 18438 (1999)] are bound in the order.
The above gene recombinational manipulation was performed according to the method described in Molecular Cloning, 2nd edition, Cold Spring Harbor Laboratory Press, New York (1989).
The expression of PDE10A was conducted according to the Baculovirus expression vector system manual (PharMingen) using insect cells. As insect cells, Sf9 cells (Asahi Technoglass, Tokyo) were used. Sf9 cells were infected with a supernatant (co-transfection sup) containing PDE10A expression virus prepared according to the manual, and cultured at 27° C. for 4 days. The cells were recovered, washed with a phosphate-buffered saline (PBS), and then suspended in an extraction solution [20 mmol/L Tris-acetate (pH 7.5), 2 mmol/L MgCl2, 1 mmol/L dithiothreitol, 1 mmol/L ethylenediaminetetraacetic acid (EDTA), 0.25 mol/L sucrose, 250 unit/mL aprotinin, 40 μg/mL phenylmethylsulfonyl fluoride, and 1 μg/mL pepstatin A]. The cells were disrupted in ice with the maximum output under conditions of 5 seconds and five times using an ultrasonic disruption machine (TOMY model UR-200R, TOMY, Tokyo). A soluble fraction was obtained by centrifugation under 10,000 rpm of the fraction at 4° C. for 30 minutes, and the resulting soluble fraction was used for measuring the PDE activity.
The PDE activity was measured according to the method described in Methods Enzymol., vol. 159, p. 457 (1988).
Using [^3H]cAMP as a substrate, an enzyme reaction was conducted in a reaction solution containing 300 μL of 50 mmol/L N,N-bis (2-hydroxyethyl)-2-aminoethanesulfonic acid (pH 7.2), 1 mmol/L MgCl2 and 0.1 mmol/L ethylene glycol-bis (β-aminoethyl ether)-N,N,N′,N′-tetraacetic acid: EGTA). The concentration of the substrate was 0.2 μmol/L. To 95 μL of an enzyme dilute solution were added 5 μL of a test compound (DMSO solution) and 200 μL of a substrate solution. The mixture was incubated at 30° C. for 20 minutes, and then HCl was added to stop the reaction. The reaction product (5′-AMP) was converted to adenosine using 5′-nucleotidase, and separated the unreacted product from the reactant by DEAE-Sephadex A-25 column (Amersham Pharmacia Biotech, Uppsala, Sweden). The elute was moved to scintillation vials, 6 mL of Ultima Gold (Packard Instrument, Meriden, Conn., USA) was added, and the radioactivity was measured for 2 minutes using a liquid scintillation counter (Beckman LS6500, Beckman, Tokyo),. […]

T1 sequence (Q9Y233 340-1055): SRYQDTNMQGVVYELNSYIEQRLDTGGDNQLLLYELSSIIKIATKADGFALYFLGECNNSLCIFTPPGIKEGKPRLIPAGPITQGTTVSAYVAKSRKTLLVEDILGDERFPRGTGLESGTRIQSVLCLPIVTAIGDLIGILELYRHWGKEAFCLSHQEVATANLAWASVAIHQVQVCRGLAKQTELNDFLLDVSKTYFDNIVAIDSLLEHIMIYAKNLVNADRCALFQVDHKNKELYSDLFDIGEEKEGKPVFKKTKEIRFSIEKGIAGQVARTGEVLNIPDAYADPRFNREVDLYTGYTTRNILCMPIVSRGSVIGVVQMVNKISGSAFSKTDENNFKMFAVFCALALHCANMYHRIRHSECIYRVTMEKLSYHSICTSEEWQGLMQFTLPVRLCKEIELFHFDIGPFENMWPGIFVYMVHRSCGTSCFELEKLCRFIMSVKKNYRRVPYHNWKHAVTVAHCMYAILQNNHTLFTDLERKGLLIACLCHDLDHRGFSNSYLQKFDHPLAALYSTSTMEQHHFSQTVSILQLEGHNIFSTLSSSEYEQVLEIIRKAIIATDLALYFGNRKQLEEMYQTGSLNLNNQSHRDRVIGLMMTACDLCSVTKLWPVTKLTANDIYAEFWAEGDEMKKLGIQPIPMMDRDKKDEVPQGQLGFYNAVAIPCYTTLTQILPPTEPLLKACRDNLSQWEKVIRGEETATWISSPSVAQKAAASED

Broadly, the inhibition is the change of the read-out against control, counted positive when it falls. In test [1], `Cc1c(-c2ccc(-c3ccccc3CN3CCOCC3)cc2)nc2ccc(F)cc2c1CO` [Compound 12, 6-Fluoro-4-hydroxymethyl-3-methyl-2-(2′-morpholinomethylbiphenyl-4-yl)quinoline dihydrochloride] came in with an inhibition at 10 µM of 39%. Further, at PDE10A (Test compound concentration 1 μmol/L, read-out: [3H] cAMP decomposition inhibition rate (%)), the inhibition at 1 µM is 96%. Also, the IC50 on PDE10A (read-out: IC50 (concentration at which to inhibit [3H]cAMP decomposition by 50%)) came to 0.068 µM.
